Measurements: patent publication US20250326725A1, “PI4-Kinase Inhibitors and Methods of Using the Same” (The Board of Trustees of the Leland Stanford Junior …, priority 2019, published 2025)
Values joined by “and” are separate entries in the source; they are usually repeats but may differ in a detail not shown here. Equal values may be shown once. Read-outs that look alike come from different tables or passages of the source.

How the values were obtained:
EV71 = EV71 antiviral assay (EC50); type: cell-based, Enterovirus 71
HRV = experiment: Rhinovirus antiviral assay (EC50); type: cell-based; settings: Human rhinovirus sp.
[1] = Microsomal stability, human liver microsomes; type: in vitro ADME
[2] = Cell toxicity (CC50) in EV68 assay; settings: EV68 CC50
[3] = Microsomal stability, mouse liver microsomes; type: in vitro ADME
HCV = experiment: Anti-HCV assay (EC50); type: cell-based; settings: Hepatitis C virus, read-out: HCV EC50
Procedure: Anti-HCV assay: Anti-HCV assays are performed as described by Cho et al. “Identification of a class of HCV inhibitors directed against the nonstructural protein NS4B.” Sci. Transl. Med. 2011; 2(15):15ra6.

[4] = Cell toxicity (CC50) in HRV assay; settings: human, HRV CC50
[5] = Cell toxicity (CC50) in EV71 assay; settings: EV71 CC50
[6] = Caco-2 permeability assay; type: in vitro ADME; settings: human, read-out: Caco2 Papp × 1e−6 cm/s
Procedure: Compounds of interest were tested in a variety of cell-based assays for antiviral activity.

EV68 = EV68 antiviral assay (EC50); type: cell-based
HeLa S3 cells = experiment: Cell toxicity (CC50) in HRV assay; settings: human
cells (EV71 assay) = experiment: Cell toxicity (CC50) in EV71 assay

| Structure (SMILES) | EC50 (EV71; Enterovirus A, EV71) [nM] | EC50 (HRV) [nM] | half-life ([1]; read-out: HLM/MLM (t ½ min): HLM) [min] | half-life ([1]; with ritonavir (concentration not stated), + Ritonavir, read-out: HLM/MLM (t ½ min) + Ritonavir: HLM) [min] | CC50 [2] [nM] | half-life ([3]; read-out: HLM/MLM (t ½ min): MLM) [min] | half-life ([3]; with ritonavir (concentration not stated), + Ritonavir, read-out: HLM/MLM (t ½ min) + Ritonavir: MLM) [min] | EC50 (HCV) [nM] | CC50 [4] [nM] | CC50 [5] [nM] | Papp [6] [×10⁻⁶ cm/s] | EC50 (EV68) | CC50 (HeLa S3 cells) [nM] | CC50 (cells (EV71 assay)) [nM] | EC50 (EV71) [nM] |
| --- | --- | --- | --- | --- | --- | --- | --- | --- | --- | --- | --- | --- | --- | --- | --- |
| COc1ccc(-c2sc(NC(C)(C)C3CCOCC3)nc2C)cc1S(=O)(=O)Nc1c(C)cccc1F [Compound S-1] | 0.2 | 0.5 | 6 | 68 | 18200 | 8 | 50 | 5 | 15000 | 100000 | 4 | 2.4 nM and 2 nM |  |  |  |
| COc1ccc(-c2sc(NC(C)(C)C3CCOCC3)nc2C)cc1S(=O)(=O)Nc1ccc(F)cc1Cl [Compound S-4] |  | 1.3 |  |  |  |  |  | 1.3 | 17300 | 36500 |  |  | 17000 | 36000 |  |
| COc1ccc(-c2sc(NC(C)(C)c3ccncc3)nc2C)cc1S(=O)(=O)Nc1c(C)cccc1F [Compound S-37] | 0.1 |  |  |  | 3880 |  |  | 0.1 | 4390 | 21800 |  | 0.5 nM |  |  |  |
| COc1ccc(-c2sc(NC(C)(C)c3ccccc3)nc2C)cc1S(=O)(=O)Nc1ccc(O)cc1 [Compound S-38] |  | 0.2 |  |  |  |  |  | 0.6 |  |  |  |  |  |  |  |
| COc1ccc(-c2sc(NC(C)(C)C3CCOCC3)nc2C)cc1S(=O)(=O)Nc1ccc(NC(C)=O)cc1 [Compound S-40] | 0.0751 |  |  |  | 42700 |  |  | 0.2 | 40800 | 78100 |  | 1.2 nM |  |  |  |
| COc1ccc(-c2sc(NC(C)(C)c3ccccc3)nc2C)cc1S(=O)(=O)NC1CCNCC1 [Compound S-41] | 0.9 |  |  |  | 2090 |  |  | 9.9 | 1900 | 776 |  | 58.5 nM |  |  |  |
| COc1ccc(-c2sc(NC(C)(C)c3ccccc3)nc2C)cc1S(=O)(=O)NC1CCN(C=O)CC1 [Compound S-43] | 0.3 |  |  |  | 100000 |  |  | 2.1 | 100000 | 17500 |  | 5.1 nM |  |  |  |
| COc1ccc(-c2sc(NC(C)(C)c3ccccc3)nc2C)cc1S(=O)(=O)Nc1ccncc1C(F)(F)F [Compound S-44] | 3.5 |  |  |  | 33500 |  |  | 30.6 | 32100 | 18200 |  | 1990 nM |  |  |  |
| COc1ccc(-c2oc(NC(C)(C)c3ccccc3)nc2C)cc1S(=O)(=O)Nc1ccncc1C [Compound S-46] | 0.4 |  |  |  | 44500 |  |  | 0.9 | 52400 | 24500 |  | 2.6 nM |  |  |  |
| COc1ccc(-c2oc(NC(C)(C)c3ccccn3)nc2C)cc1S(=O)(=O)Nc1ccncc1C [Compound S-47] | 1.2 |  |  |  | 49100 |  |  | 9.6 | 49500 | 21100 |  | 27.6 nM |  |  |  |
| COc1ccc(-c2oc(NC(C)(C)c3cccnc3)nc2C)cc1S(=O)(=O)Nc1ccncc1C [Compound S-48] | 4.5 |  |  |  | 100000 |  |  | 74.5 | 100000 | 100000 |  | 217 nM |  |  |  |
| COc1ccc(-c2sc(NC(C)(C)c3ccncc3)nc2C)cc1S(=O)(=O)Nc1ccncc1C [Compound S-49] | 1 |  |  |  | 71400 |  |  | 10 | 66300 | 29500 |  | 50.7 nM |  |  |  |
| COc1ccc(-c2sc(NC(C)(C)C3CCOCC3)nc2C)cc1S(=O)(=O)Nc1ccncc1C [Compound S-50] | 1.2 |  |  |  | 37600 |  |  | 7.6 | 46600 | 38100 |  | 12.8 nM |  |  |  |
| COc1ccc(-c2sc(NC(C)(C)C3CCN(C(C)=O)CC3)nc2C)cc1S(=O)(=O)Nc1ccc(F)cc1Cl [Compound S-51] | 1.3 |  |  |  | 37000 |  |  | 1.5 | 52700 | 62100 |  | 11.5 nM |  |  |  |
| COc1ccc(-c2sc(NC(C)(C)C3CCNCC3)nc2C)cc1S(=O)(=O)Nc1ccc(F)cc1Cl [Compound S-52] | 75000 |  |  |  | 2230 |  |  | 75000 | 2320 | 3070 |  | 100000 nM |  |  |  |
| COc1ccc(-c2sc(NC(C)(C)C3CCNCC3)nc2C)cc1S(=O)(=O)Nc1cccnc1C [Compound S-53] | 3560 |  |  |  | 100000 |  |  | 12400 | 100000 | 47900 |  | 12300 nM |  |  |  |
| COc1ccc(-c2sc(NC34CC(C3)C4)nc2C)cc1S(=O)(=O)Nc1c(C)cccc1F [Compound S-55] | 1.8 |  |  |  | 22100 |  |  | 1 | 19400 | 100000 |  | 6.8 nM |  |  |  |
| COc1ccc(-c2sc(NC(C)(C)c3ccccc3)nc2C)cc1S(=O)(=O)NC1CCN(S(C)(=O)=O)CC1 [Compound S-57] | 0.9 | 0.9 |  |  | 100000 |  |  | 0.9 | 95200 | 96100 |  | 1 nM | 95000 |  |  |
| COc1ccc(-c2sc(NC(C)(C)C3CCCCC3)nc2C)cc1S(=O)(=O)Nc1c(C)cccc1F [Compound S-58] | 6.8 | 22 |  |  | 100000 |  |  | 22.5 | 100000 | 100000 |  | 13.5 nM and 13 nM |  |  | 6 |
| COCC(C)(C)Nc1nc(C)c(-c2ccc(OC)c(S(=O)(=O)Nc3c(C)cccc3F)c2)s1 [Compound S-63] | 8.4 |  |  |  | 40600 |  |  | 1.5 | 27700 | 83800 |  | 3.4 nM |  |  |  |
| COc1ccc(-c2oc(NC(C)(C)c3ccccc3)nc2C)cc1S(=O)(=O)Nc1c(C)cccc1F [Compound S-65] | 2.7 |  |  |  | 1700 |  |  | 1.8 | 46300 | 31300 |  | 2.4 nM |  |  |  |
| COc1ccc(-c2sc(N[C@@H](C)c3ccccc3)nc2C)cc1S(=O)(=O)Nc1c(C)cccc1F [Compound S-74] | 0.9 | 0.9 |  |  | 100000 |  |  |  | 95000 | 95000 |  | 1 nM |  |  |  |
| COc1ccc(-c2sc(N[C@H](C)c3ccccc3)nc2C)cc1S(=O)(=O)Nc1c(C)cccc1F [Compound S-75] | 6 | 22 |  |  | 100000 |  |  |  | 100000 | 100000 |  | 13 nM |  |  |  |
| COc1ccc(-c2sc(NCC3CCOCC3)nc2C)cc1S(=O)(=O)Nc1ccc(F)cc1Cl [Compound S-77] |  | 826 |  |  |  |  |  |  | 66000 |  |  |  |  |  |  |
